# Data taken from patent US20090209577A1, “Novel Triazolopyridine Compounds” (PFIZER INC., priority 2004, published 2009).
# pIC50: −log10 of the molar value. Structures can show the parent of a compound that is named as a salt.
# Target: T1, human p38 kinase alpha (Homo sapiens, UniProt Q16539)
# T1 construct: The coding region of the human p38a cDNA was obtained by PCR-amplification from RNA isolated from the human monocyte cell line THP.1; made in house; host or cells: E. coli DH10B
# Assay: p38 kinase in vitro assay (PHAS-I / 32P-ATP format or EGFRP / 33P-ATP format)
# Type: biochemical
# Settings: activated human p38 kinase alpha, 50 μM unlabeled ATP; two assay formats, table does not say which
# Method: The ability of compounds to inhibit human p38 kinase alpha was evaluated using two in vitro assay methods. In the first method, activated human p38 kinase alpha phosphorylates a biotinylated substrate, PHAS-I (phosphorylated heat and acid stable protein-insulin inducible), in the presence of gamma ^32P-ATP (^32P-ATP). PHAS-I was biotinylated prior to the assay and provides a means of capturing the substrate, which is phosphorylated during the assay. p38 Kinase was activated by MKK6. Compounds were tested in 10 fold serial dilutions over the range of 100 μM to 0.001 μM using 1% DMSO. Each concentration of inhibitor was tested in triplicate.
# All reactions were carried out in 96 well polypropylene plates. Each reaction well contained 25 mM HEPES pH 7.5, 10 mM magnesium acetate and 50 μM unlabeled ATP. Activation of p38 was required to achieve sufficient signal in the assay. Biotinylated PHAS-1 was used at 1-2 μg per 50 μl reaction volume, with a final concentration of 1.5 μM. Activated human p38 kinase alpha was used at 1 μg per 50 μl reaction volume representing a final concentration of 0.3 μM. Gamma ^32P-ATP was used to follow the phosphorylation of PHAS-1. ^32P-ATP has a specific activity of 3000 Ci/mmol and was used at 1.2 μCi per 50 μl reaction volume. The reaction proceeded either for one hour or overnight at 30° C.
# Following incubation, 20 μl of reaction mixture was transferred to a high capacity streptavidin coated filter plate (SAM-streptavidin-matrix, Promega) prewetted with phosphate buffered saline. The transferred reaction mix was allowed to contact the streptavidin membrane of the Promega plate for 1-2 minutes. Following capture of biotinylated PHAS-1 with ^32P incorporated, each well was washed to remove unincorporated ^32P-ATP three times with 2M NaCl, three washes of 2M NaCl with 1% phosphoric, three washes of distilled water and finally a single wash of 95% ethanol. Filter plates were air-dried and 20 μl of scintillant was added. The plates were sealed and counted.
# A second assay format was also employed that is based on p38 kinase alpha induced phosphorylation of EGFRP (epidermal growth factor receptor peptide, a 21 mer) in the presence ^33P-ATP. Compounds were tested in 10 fold serial dilutions over the range of 100 μM to 0.001 μM in 1% DMSO. Each concentration of inhibitor was tested in triplicate. Compounds were evaluated in 50 μl reaction volumes in the presence of 25 mM Hepes pH 7.5, 10 mM magnesium acetate, 4% glycerol, 0.4% bovine serum albumin, 0.4 mM DTT, 50 μM unlabeled ATP, 25 μg EGFRP (200 μM), and 0.05 μCi ^33P-ATP. Reactions were initiated by addition of 0.09 μg of activated, purified human GST-p38 kinase alpha. Activation was carried out using GST-MKK6 (5:1, p38:MKK6) for one hour at 30° C. in the presence of 50 μM ATP. Following incubation for 60 minutes at room temperature, the reaction was stopped by addition of 150 μl of AG 1×8 resin in 900 mM sodium formate buffer, pH 3.0 (1 volume resin to 2 volumes buffer). The mixture was mixed three times with pipetting and the resin was allowed to settle. A total of 50 μl of clarified solution head volume was transferred from the reaction wells to Microlite-2 plates. 150 μl of Microscint 40 was then added to each well of the Microlite plate, and the plate was sealed, mixed, and counted.
# The above protocol assays were used to determine the IC50 values for compounds in Examples 1-71 above.
# T1 sequence (Q16539 whole entry): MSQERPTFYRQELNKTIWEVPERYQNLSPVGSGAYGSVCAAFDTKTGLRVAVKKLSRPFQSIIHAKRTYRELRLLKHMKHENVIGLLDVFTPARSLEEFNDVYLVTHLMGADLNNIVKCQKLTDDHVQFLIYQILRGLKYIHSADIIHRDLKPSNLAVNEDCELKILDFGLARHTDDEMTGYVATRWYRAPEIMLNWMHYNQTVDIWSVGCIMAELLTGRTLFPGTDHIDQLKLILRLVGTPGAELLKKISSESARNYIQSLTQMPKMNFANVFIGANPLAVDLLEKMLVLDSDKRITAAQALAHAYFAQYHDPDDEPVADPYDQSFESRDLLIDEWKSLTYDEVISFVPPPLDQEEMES
row,SMILES,pIC50
1,"CC(=O)c1ccc2nnc(C(C)C)n2c1 [Example 4, 1-(3-isopropyl[1,2,4]triazolo[4,3-a]pyridin-6-yl)ethanone]",< 4.00
2,"CC(C)c1nnc2ccc(S(=O)(=O)c3ccc(F)cc3F)cn12 [Example 61, 6-[(2,4-difluorophenyl)sulfonyl]-3-isopropyl[1,2,4]triazolo[4,3-a]pyridine]",< 4.00
3,"COC(=O)c1cccc(-c2nnc3ccc(C(=O)c4ccc(F)cc4F)cn23)c1 [Example 29, methyl 3-[6-(2,4-difluorobenzoyl)[1,2,4]triazolo[4,3-a]pyridin-3-yl]benzoate]",4.85
4,"COC(=O)c1ccc(C)c(-c2nnc3ccc(Br)cn23)c1 [41 (step 2), methyl 3-(6-bromo[1,2,4]triazolo[4,3-a]pyridin-3-yl)-4-methylbenzoate]",4.89
5,"CC(C)c1nnc2ccc(COCc3ccc(F)cc3F)cn12 [Example 6, 6-{[(2,4-difluorobenzyl)oxy]methyl}-3-isopropyl[1,2,4]triazolo[4,3-a]pyridine]",< 4.00
6,"CC(C)(C)c1nnc2ccc(Cc3ccc(Cl)nc3)cn12 [Example 10, 3-tert-butyl-6-[(6-chloropyridin-3-yl)methyl][1,2,4]triazolo[4,3-a]pyridine]",4.67
7,"CC(C)c1nnc2ccc(-c3cnn(Cc4ccccc4)c3)cn12 [Example 7, 6-(1-benzyl-1H-pyrazol-4-yl)-3-isopropyl[1,2,4]triazolo[4,3-a]pyridine]",< 4.00
8,"CC(C)c1nnc2ccc(C(=O)Cc3ccc(F)cc3F)cn12 [Example 5, 2-(2,4-difluorophenyl)-1-(3-isopropyl[1,2,4]triazolo[4,3-a]pyridin-6-yl)ethanone]",5.13

# The next molecules have a higher pIC50 than those just listed; values first:
row,pIC50,SMILES
1,7.76,"COC(=O)c1ccc(C)c(-c2nnc3ccc(/C=C/c4ccc(F)cc4F)cn23)c1 [Example 16, methyl 3-{6-[(E)-2-(2,4-difluorophenyl)vinyl][1,2,4]triazolo[4,3-a]pyridin-3-yl}-4-methylbenzoate]"
2,7.22,"Cc1ccc(C(N)=O)cc1-c1nnc2ccc(Sc3ccc(F)cc3F)cn12 [Example 41, 3-{6-[(2,4-difluorophenyl)thio][1,2,4]triazolo[4,3-a]pyridin-3-yl}-4-methylbenzamide]"
3,7.69,"Cc1ccc(C(=O)NCCO)cc1-c1nnc2ccc(Sc3ccc(F)cc3F)cn12 [Example 43, 3-{6-[(2,4-difluorophenyl)thio][1,2,4]triazolo[4,3-a]pyridin-3-yl}-N-(2-hydroxyethyl)-4-methylbenzamide]"
4,6.35,"OCC(O)c1ccc(-c2nnc3ccc(Cc4ccc(F)cc4F)cn23)cc1 (stereo not shown) [Example 62, 1-{4-[6-(2,4-difluorobenzyl)[1,2,4]triazolo[4,3-a]pyridin-3-yl]phenyl}ethane-1,2-diol trifluoroacetate]"
5,8.11,"COC(=O)c1ccc(C)c(-c2nnc3ccc(Sc4ccc(F)cc4F)cn23)c1 [41 (step 3), methyl 3-{6-[(2,4-difluorophenyl)thio][1,2,4]triazolo[4,3-a]pyridin-3-yl}-4-methylbenzoate]"
6,5.53,"NC(=O)c1cccc(-c2nnc3ccc(Cc4ccc(F)cc4F)cn23)c1 [Example 28, 3-[6-(2,4-difluorobenzyl)[1,2,4]triazolo[4,3-a]pyridin-3-yl]benzamide]"
7,6.27,"CC(C)c1nnc2ccc(/C=C\c3ccc(F)cc3F)cn12 [Example 1, 6-[(Z)-2-(2,4-difluorophenyl)vinyl]-3-isopropyl[1,2,4]triazolo[4,3-a]pyridine]"
8,5.95,"COC(=O)c1cccc(-c2nnc3ccc(C(O)c4ccc(F)cc4F)cn23)c1 (stereo not shown) [Example 65, methyl 3-{6-[(2,4-difluorophenyl)(hydroxy)methyl][1,2,4]triazolo[4,3-a]pyridin-3-yl}benzoate]"
